From article PMC3912631, “Bench to Bed Evidences for Pharmacokinetic and Pharmacodynamic Interactions Involving Oseltamivir and Chinese Medicine” (Evidence-based Complementary and Alternative Medicine : eCAM, 2014)
Read-outs that look alike come from different tables or passages of the source.

Experiments:
[1] = tested on: influenza virus strains; parameters: method as in PMID 20215135; details: read-out: inhibitory concentrations (IC50) against influenza virus strains; cited from earlier work
[2] = Rat pharmacokinetics of OA and OC in plasma and urine after oral OA alone or with CMF1; type: in vivo, Sprague-Dawley rats; details: for Tmax / Cmax / CL renal / half-life: male, Sprague-Dawley, in vivo, po, 30 mg/kg; for Tmax / Cmax / CL renal / half-life / AUC0–8 h / AUC0–inf / Renal recovery: oral, bid for 5 days; for Tmax: mean ± SD, read-out: T max (converted); for Cmax: read-out: C max; for CL renal: read-out: CL renal; for half-life: read-out: t 1/2, λz; for Renal recovery: urine over 8 h
Experimental: The study was approved by the Animal Ethics Committee of The Chinese University of Hong Kong. Male Sprague-Dawley rats (230–250 g) were utilized and supplied by the Laboratory Animal Service Center at The Chinese University of Hong Kong. The rats were housed under standard conditions of temperature, humidity, and light and randomly divided into six groups with 10–12 rats in each group. […] The dose of 1.95 g/kg CMF1 is calculated based on the human dose recommended by the Chinese physicians and a doubled dose of CMF1 at […] is also used in the current study due to the potential large dosing range for Chinese medicine adopted in the practice. […]
For dosing, OA (4 mg/mL) was freshly prepared by dissolving it in water and orally given to rats by gavage, bid (twice daily) for 4 days (9:00am and 6:00pm for each day), and CMF1 was also freshly suspended in water and then orally given to rats 2 h later of OA dosing (11:00 am and 8:00 pm for each day).
For Groups of 1 to 3, a surgery for jugular vein cannulation was performed 1 h after CMF1 second dosing on day 4. A polyethylene catheter (0.50 mm ID, 1.00 mm OD, Portex Limited, Hythe, Kent, England) was cannulated into the right jugular vein under anesthesia. After surgery, the rat was placed in separated metabolic cage and allowed to recover and fasted overnight with free access to water. In the morning of day 5, blood samples (0.2 mL each) of the rats in the Groups 1–3 were collected via the catheter at 0, 15, 30, 60, 90, 120, 180, 240, 360, and 480 min after dosing of OA. After which, 0.2 mL of normal saline containing 20 units/mL of heparin was then injected into the catheter to flush the catheter. The collected blood samples were immediately placed in heparinized tubes containing dichlorvos (5 μL of 8 mg/mL dichlorvos in normal saline) for inhibition of carboxylesterase, followed by centrifugation to obtain the plasma and stored at −80°C. Urine samples were collected over 8 h postdose and combined with water used for rinsing the metabolic cage, further diluted to 200 mL, and then stored at −80°C until assay.
The rat/human plasma and urine samples were treated and analyzed by an LC/MS/MS system as previously described. Briefly, 200 μL plasma/urine samples was mixed with cephalexin hydrate (internal standard, IS) working solution (final 2 μg/mL) and acidified with 1 mL of 10% perchloric acid in water (if necessary, dilution with blank human urine was required for urine samples). After mixing and centrifugation, the supernatant was loaded in prewashed Oasis MCX cartridge (1 cc, 30 mg, Waters) and the cartridge was rinsed subsequently with 1% formic acid, water, and methanol followed by vacuum dried for 20 min. The analytes were then eluted with 1 mL of 1% ammonia in methanol. The eluting solvent was dried by a vacuum concentrator and the residue was reconstituted with 200 μL of 0.1% formic acid : methanol (1 : 1 v/v) prior to HPLC/MS/MS analysis using an ABI 2000 Q-Trap triple quadrupole mass spectrometer (Applied Biosystems) coupled with PE-200 series micropumps and autosampler (Perkin-Elmer). The chromatographic separation was achieved by using a Nova-Pak CN HP column (75 × 3.9 mm i.d., 4 μm particle size, Waters) and the HPLC solvent system consisted of methanol (A) and 0.1% formic acid in water (B), with 50% A (for plasma samples) or 60% A (for urine samples) at 1 mL/min. The temperatures of autosampler and the analytical column were set at 4°C and ambient, respectively, and the sample injection volume was 20 μL. Prior to the mass spectrometric system, 60% of the LC eluent was split off and only 40% of the eluent was introduced into the ESI source.
The plasma/urine OA and OC concentrations versus time profiles were analyzed using WinNonlin software standard edition version 2.1 (Pharsight Corporation). […] In human study, trough concentration (C trough) was defined as the minimum concentration obtained and was obtained at 12 h post-dose. […]

[3] = Rat in situ intestinal perfusion model, effect of CMF1 on absorption of OA; type: in vivo; details: CMF1 6.8 mg/mL vs OA alone (Figure 2)
Experimental: In view of the consistent effect of CMF1 on OA and OC, further confirmation was performed using rat in situ intestinal perfusion model as described previously. Perfusion concentrations were set at 6.8 mg/mL for CMF1. The flow rate of perfusate applied to the intestinal lumen was set at 0.3 mL/min. Samples obtained from the mesenteric vein were collected into the preweighted 2 mL centrifuge tubes (each containing 30 μL of 10 mg/mL saline solution of dichlorvos) at every 5 min. All collected samples were weighted and centrifuged at 13,000 rpm for 4 min immediately. The plasma samples were stored at −80°C refrigerator until further treated by SPE and analyzed by LC/MS/MS assay as described above.

[4] = tested on: H3N2; parameters: method as in PMID 20215135; details: read-out: inhibitory concentrations (IC50) against H3N2; cited from earlier work
[5] = Group 2: OA 30 mg/kg + CMF1 at 1.95 mg/kg
[6] = Group 3: OA 30 mg/kg + CMF1 at 3.90 mg/kg

SMILES: CCC(CC)O[C@@H]1C=C(C(=O)O)C[C@H](N)[C@H]1NC(C)=O [OC, oseltamivir carboxylate]
- IC50 [1]: 0.01 to 69.2 nM
- decrease of C max, urinary recovery and AUC of OC and OC/OA AUC ratio in OA + CMF1 groups vs OA alone ([2]; dose-dependent): 26%-27%
- Tmax ([2]; Group 1: OA alone 30 mg/kg): 1.75 h
- Cmax ([2]; Group 1: OA alone 30 mg/kg): 1650 ± 400 ng/mL
- CL renal ([2]; Group 1: OA alone 30 mg/kg): 6.33 ± 1.27 mL/min
- half-life ([2]; Group 1: OA alone 30 mg/kg): 2.53 ± 0.418 h
- Tmax [2, 5]: 1.77 h
- Cmax [2, 5]: 1360 ± 280 ng/mL
- CL renal [2, 5]: 6.27 ± 1.76 mL/min
- half-life [2, 5]: 2.44 ± 0.318 h
- Tmax [2, 6]: 2 h
- Cmax [2, 6]: 1190 ± 230 ng/mL
- CL renal [2, 6]: 6.34 ± 0.69 mL/min
- half-life [2, 6]: 2.61 ± 0.28 h
- AUC0–8 h ([2]; Group 1: OA alone 30 mg/kg): 418.81 ± 90.86 μg∗min/mL
- AUC0–inf ([2]; Group 1: OA alone 30 mg/kg): 485.45 ± 113.03 μg∗min/mL
- AUC0–8 h [2, 5]: 344.13 ± 91.46 μg∗min/mL
- AUC0–inf [2, 5]: 395.67 ± 109.41 μg∗min/mL
- AUC0–8 h [2, 6]: 304.84 ± 40.32 μg∗min/mL
- AUC0–inf [2, 6]: 359.21 ± 41.30 μg∗min/mL
- Renal recovery ([2]; Group 1: OA alone 30 mg/kg): 35.26 ± 5.40 % of dose
- Renal recovery [2, 5]: 29.73 ± 7.33 % of dose
- Renal recovery [2, 6]: 25.94 ± 3.09 % of dose
- accumulated amount in rat mesenteric blood in presence of CMF1 [3]: decreased without statistical significance
- IC50 [4]: 0.2 to 0.6 nM
